Source: ChEMBL document CHEMBL1134162 (Bioorg Med Chem Lett, 2001)

Assays:
Mu-type opioid receptor [1] = target: T1, Mu-type opioid receptor (Cavia porcellus, UniProt P97266); assay: Inhibitory activity against Opioid receptor mu 1 of (endomorphin 2) in guinea pig ileum was determined
Mu-type opioid receptor [2] = target: T1, Mu-type opioid receptor; assay: In vitro inhibitory activity was determined against Opioid receptor mu 1 in guinea pig ileum
[3] = target: T2, Delta-type opioid receptor (Mus musculus, UniProt P32300); assay: Inhibitory activity against Opioid receptor delta 1 of (endomorphin 2) in mouse vas deferens was determined
T2 sequence (P32300 whole entry): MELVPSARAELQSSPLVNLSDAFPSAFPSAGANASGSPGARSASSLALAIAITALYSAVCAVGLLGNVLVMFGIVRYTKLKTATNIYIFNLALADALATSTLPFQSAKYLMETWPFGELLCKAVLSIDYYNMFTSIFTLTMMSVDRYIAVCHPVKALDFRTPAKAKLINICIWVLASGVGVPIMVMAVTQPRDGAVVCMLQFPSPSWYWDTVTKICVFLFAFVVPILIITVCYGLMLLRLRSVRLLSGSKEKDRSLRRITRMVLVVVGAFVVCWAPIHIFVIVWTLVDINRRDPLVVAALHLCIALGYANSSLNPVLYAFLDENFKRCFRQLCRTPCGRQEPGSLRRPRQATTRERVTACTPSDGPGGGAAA

Mu-type opioid receptor [4] = target: Mu-type opioid receptor (Rattus norvegicus, UniProt P33535); assay: Binding affinity was determined towards Opioid receptor mu 1 in rat brain synaptosomes using [3H]DAMGO as radioligand.
Chain of Mu-type opioid receptor (Rattus norvegicus, UniProt P33535) (P33535 whole entry): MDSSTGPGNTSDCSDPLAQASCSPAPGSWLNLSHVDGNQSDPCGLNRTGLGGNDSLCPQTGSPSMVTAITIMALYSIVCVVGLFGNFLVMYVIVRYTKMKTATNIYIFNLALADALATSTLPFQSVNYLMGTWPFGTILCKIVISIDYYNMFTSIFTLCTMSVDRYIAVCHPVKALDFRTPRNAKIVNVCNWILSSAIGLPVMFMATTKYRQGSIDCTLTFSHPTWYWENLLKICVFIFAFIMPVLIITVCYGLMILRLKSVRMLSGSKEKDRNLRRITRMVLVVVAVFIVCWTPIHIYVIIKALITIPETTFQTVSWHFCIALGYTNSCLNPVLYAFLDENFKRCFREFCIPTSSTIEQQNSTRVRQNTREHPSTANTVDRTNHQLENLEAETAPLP

[5] = target: T2, Delta-type opioid receptor; assay: Inhibitory activity against delta receptor of (endomorphin 2) in mouse vas deferens was determined
[6] = target: Mu-type opioid receptor (Rattus norvegicus) (UniProt P33535)
Chain of Mu-type opioid receptor (Rattus norvegicus) (P33535 whole entry): as above
Description: Selectivity ratio was determined by taking the ratio of Opioid receptor mu 1 to that of Opioid receptor delta 1

[7] = target: T2, Delta-type opioid receptor; assay: In vitro inhibitory activity was determined against Opioid receptor delta 1 in mouse vas deferens

T1 sequence (P97266 whole entry): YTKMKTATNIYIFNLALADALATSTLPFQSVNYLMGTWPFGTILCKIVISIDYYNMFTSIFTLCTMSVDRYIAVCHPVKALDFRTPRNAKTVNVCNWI

Compound | Kb (Mu-type opioid receptor [1]) | IC50 (Mu-type opioid receptor [2]) | IC50 [3] | Ki (Mu-type opioid receptor [4]) | Kb [5] | SR [6] | IC50 [7]
Cc1cccc(C)c1C[C@H](NC(=O)CNC(=O)CNC(=O)[C@@H](N)Cc1c(C)cc(O)cc1C)C(=O)N[C@@H](CC(C)C)C(=O)O | 126 nM | > 10 nM | > 10 nM | 5.61 nM | 2570 nM | 0.14 | –
Cc1cccc(C)c1C[C@H](NC(=O)CNC(=O)CNC(=O)[C@@H](N)Cc1ccc(O)cc1)C(=O)N[C@@H](CC(C)C)C(=O)O | – | > 10 nM | – | – | – | 0.28 | > 10 nM
Cc1cc(O)cc(C)c1C[C@H](N)C(=O)NCC(=O)NCC(=O)N[C@H](Cc1c(C)cccc1C)C(=O)N[C@@H](CC(C)C)C(=O)O | – | 2 nM | – | 0.03 nM | – | 0.19 | 1.45 nM
Cc1cccc(C)c1C[C@@H](NC(=O)CNC(=O)CNC(=O)[C@@H](N)Cc1ccc(O)cc1)C(=O)N[C@@H](CC(C)C)C(=O)O | – | 808 nM | – | 1.25 nM | – | 0.07 | 624 nM
Cc1cc(O)cc(C)c1C[C@H](N)C(=O)NCC(=O)NCC(=O)N[C@@H](Cc1ccccc1)C(=O)N[C@@H](CC(C)C)C(=O)O | – | 0.55 nM | – | 0.0068 nM | – | 0.22 | 0.17 nM
